Laboratory results: patent US20090305993A1, “METHODS AND COMPOSITION FOR THE TREATMENT OF GASTROINTESTINAL DISORDERS” (IRONWOOD PHARMACEUTICALS, INC., priority 2006, published 2009)
Where a SMILES comes first, the peptide text is derived from it. Bridges are numbered along the chain shown (N, C = ends).

Columns and labels:
[1] = test system: Male Wistar rats; test: TNBS visceral hypersensitivity rat model (colorectal distension, EMG); assay type: in vivo; details: 0.3 μg/kg and 3 μg/kg, after TNBS, FIG. 7a
Procedure: Male Wistar rats (220-250 g) were premedicated with 0.5 mg/kg of acepromazine injected intraperitoneally (IP) and anesthetized by intramuscular administration of 100 mg/kg of ketamine. Pairs of nichrome wire electrodes (60 cm in length and 80 μm in diameter) were implanted in the striated muscle of the abdomen, 2 cm laterally from the white line. The free ends of electrodes were exteriorized on the back of the neck and protected by a plastic tube attached to the skin. Electromyographic (EMG) recordings were started 5 days after surgery. Electrical activity of abdominal striated muscle was recorded with an electroencephalograph machine (Mini VIII, Alvar, Paris, France) using a short time constant (0.03 sec.) to remove low-frequency signals (<3 Hz).
Ten days post surgical implantation, trinitrobenzenesulphonic acid (TNBS) was administered to induce rectal inflammation. TNBS (80 mg kg^−1 in 0.3 ml 50% ethanol) was administered intrarectally through a silicone rubber catheter introduced at 3 cm from the anus under light diethyl-ether anesthesia, as described (Morteau et al. 1994 Dig Dis Sci 39:1239). […] Evaluation of rectal sensitivity, as measured by EMG, was performed before (1-2 days) and 3 days following rectal instillation of TNBS.
The number of spike bursts that corresponds to abdominal contractions was determined per 5 min periods. […]

[2] = test system: WT and GC-C KO mice; test: colorectal distension under basal conditions in WT and GC-C KO mice; assay type: in vivo, mouse; details: oral 0.01 and 0.3 μg/kg
Procedure: TNBS induced visceral hypersensitivity was assessed in WT and GC-C KO mice. Two groups (WT and GC-C KO) of male mice (22-25 g) were surgically prepared for electromyographic (EMG) recordings. Three electrodes were implanted in the striated muscles of the abdomen for EMG recording of abdominal contractions. Colorectal distension (CRD) was performed with a balloon inflated by 10s steps of 0.02 ml from 0 to 0.12 ml. Under basal conditions mice were submitted to control CRD (time 0) followed by oral administration of SEQ ID NO:3 (0.01 and 0.3 μg/kg) or vehicle only (distilled water, 1 ml) at 3 hours. One hour post dosing the CRD procedure was repeated. Abdominal EMG contractile response to colorectal distension in basal conditions in both WT and GC-C KO mice (12-14 mice per group) was determined in the absence of vehicle and SEQ ID NO:3, and the mean+/−standard error of the mean (SEM) is graphically depicted in FIG. 7c.

[3] = test system: adult male Wistar rats; test: water avoidance stress-induced visceral hyperalgesia model; assay type: in vivo, rat; details: oral 3 μg/kg, FIG. 7f
Procedure: The effect of SEQ ID NO:3 on basal visceral nociception in a model of water avoidance stress-induced visceral hyperalgesia in adult male Wistar rats was tested. The stress involved confining rats to a platform surrounded by water for a period of 1 hour and then measuring their visceromotor response to colonic distension using electromyography (EMG).
Electrode leads were then tunneled subcutaneously and externalized laterally for future access. Following surgery, rats were housed in pairs and allowed to recover for at least 7 days. On the day of the experiment, animals were lightly anesthetized with halothane, and a lubricated latex balloon (6 cm) was inserted intra-anally into the descending colon. Animals were allowed to recover for 30 minutes, and colorectal distension (CRD) was initiated. The CRD procedure consisted of graded intensities of phasic CRD (10, 20, 40, 60 mmHg; 20 s duration; 4 min inter-stimulus interval). Visceromotor response (VMR) to CRD was quantified by measuring EMG activity. […] Animals were allowed 1 hour recovery and then SEQ ID NO:3 or vehicle was orally administered. At 1 hour following administration of SEQ ID NO:3 or vehicle CRD was repeated. […]
To determine the effect of SEQ ID NO:3 in a model of water avoidance stress-induced visceral hyperalgesia, a baseline CRD was recorded and then the animals were subjected to 1 hour of water avoidance stress. […]

[4] = test system: healthy males and postmenopausal females; test: single oral dose study in humans, bowel habits (BSFS); assay type: in vivo, human
Procedure: Single doses of 30, 100, 300, 1000 or 3000 μg of chemically synthesized SEQ ID NO:3 were given to 30 healthy males and postmenopausal females. At each dose level (100 μg was done twice) SEQ ID NO:3 or placebo (vehicle) was administered orally in 5.0 mL 50 mM phosphate buffer (pH 6.0) plus 3×20 mL water rinses and 175 mL water after at least a 10-hour fast. In each dosing group, subjects were randomized to receive either placebo (1 subject) or SEQ ID NO:3 (3-4 subjects). Bowel habits (including Bristol Stool Form Scale score (BSFS; FIG. 14a), stool frequency, and stool weight) were evaluated for each collected bowel movement 48 hours prior to dose and up to approximately 48 hours postdose.

[5] = biological target: chymotrypsin (Bos taurus, UniProt P00766); details: 37° C., up to 24 h
Procedure: The stability of SEQ ID NO:3 in the presence of several mammalian digestive enzymes was determined. SEQ ID NO:3 was exposed to a variety of in vitro conditions including digestive enzymes and low ph environments designed to simulate gastric fluid. SEQ ID NO:3 was incubated with chymotrypsin, trypsin, pepsin, aminopeptidase, carboxypeptidase A, and simulated gastric fluid (sgf) at ph 1.0. Samples were collected at 0, 3, and 24 h for all conditions except pepsin digestion and the SGF. For the latter two conditions, samples were obtained at 0, 1, and 3 h. Negative control samples were prepared for initial and final time points. A separate, positive activity control was run in parallel to SEQ ID NO:3. All samples were analyzed by LC/MS
500 μl samples of 0.01 mg/mL SEQ ID NO:3 and guanylin (Sigma-Aldrich, G116; positive control) were prepared in the chymotrypsin reaction buffer (100 mM Tris-HCl, 10 mM CaCl2, pH 7.5) in 2 mL eppendorf tubes. Zero and 24 h control samples were prepared by adding 5 μL of a 10 mM chymostatin (Sigma-Alrich, C7268; a chymotrypsin inhibitor) stock for a final concentration of 100 μM. All samples were incubated at 37° C. for 5 min. […] These standards were used to generate a standard curve for quantification of samples. […]

SMILES: C[C@@H]1NC(=O)[C@@H]2CCCN2C(=O)[C@H](CC(N)=O)NC(=O)[C@@H]2CSSC[C@H](N)C(=O)N[C@H]3CSSC[C@H](NC1=O)C(=O)N[C@@H]([C@@H](C)O)C(=O)NCC(=O)N[C@H](C(=O)N[C@@H](Cc1ccc(O)cc1)C(=O)O)CSSC[C@H](NC(=O)[C@H](Cc1ccc(O)cc1)NC(=O)[C@H](CCC(=O)O)NC3=O)C(=O)N2 [SEQ ID NO:3] (H-CCEYCCNPACTGCY-OH; disulfide 1-6, 2-10, 5-13; N-terminus and C-terminus assumed)
- abdominal response to colorectal distension [1]: Significant decreases in abdominal response
- EMG response to colorectal distension [2]: decreased the EMG response to colorectal distension
- visceromotor response to CRD 24 hours after water avoidance stress [3]: exhibited anti-hyperalgesic properties
- percent of subjects with at least a 2-point increase in BSFS consistency score ([4]; 1000 μg dose group, mean pre-dose compared to peak 48 hours post-dose, FIG. 14c): highest percent of subjects
- BSFS post-dose scores versus dose ([4]; single oral dose 30-3000 μg): Higher BSFS post-dose scores correlated with a higher dose
- maximum BSFS score ([4]; single oral dose 30-3000 μg, FIG. 14b): increase
- Cleavage of SEQ ID NO: 3 by proteolytic substance [5]: not detectable
